# Laboratory results: article PMC8123576 (International Journal of Molecular Sciences, 2021)
# Where two headings read alike, the source gives them in different places.
# Legend:
# [1] = tested on: A. cepa root cells; conditions: for DNA damage as chromosomal aberrations in Allium root cells: 10.0 µM
# Description: To detect micronuclei and chromosomal aberrations six equal-sized pre-germinated young bulbs per sample were exposed for 24 h to sample dilutions. The bulbs dedicated to the micronuclei test underwent an additional treatment in the saline solution for 44 h of recovery time to cover two rounds of mitosis so that damage induced in chromosomes during mitosis to be visible as micronuclei in interphase cells. Then all the roots were fixed in acetic acid and ethanol (1:3) for 24 h and lastly stored in 70% ethanol. The negative control was DMSO in Rank’s solution (the dose of DMSO corresponding to volume of samples) and positive control was maleic hydrazide (10^−2 M, 6 h exposure). […] All experiments were performed in duplicate.
# [2] = tested on: A. flavus; test: microbe, parasite or virus in culture; assay type: cell-based, Aspergillus flavus
# [3] = tested on: S. typhimurium TA98 and TA100 strains; test: Ames test, overall mutagenicity verdict in bacteria; conditions: TA98 and TA100, -S9 and +S9
# [4] = tested on: A. cepa; test: A. cepa toxicity test (root length); assay type: in vivo, Allium cepa; conditions: in vivo
# Description: A. cepa toxicity test: Twelve equal-sized young onion bulbs were exposed for 96 h in the dark to different concentrations of compounds dissolved in DMSO, changing the sample solution every day. […] Root macroscopic parameters such as turgescence, consistency, change in color and root tip shape, were used as toxicity indexes.
# [5] = tested on: aflatoxin accumulation by A. flavus; test: microbe, parasite or virus in culture; assay type: cell-based, Aspergillus flavus
# [6] = tested on: Hs27 cells; test: Cytotoxicity assay (CellTiter 96 AQueous One) on Hs27; assay type: cell-based, human; conditions: for viability: Hs27, 24 h, dose 0 = 100.00, read-out: Growth inhibition data; for GI50: Hs27 cells, 24 h treatment
# Description: The best antifungal and/or antiaflatoxigenic compounds were tested to determine their cytotoxic activity against human normal cell lines deriving from lung (HFL1, ATCC and CCL-153), skin (Hs27, ATCC, CRL1634) and colon (Crl1790, ATCC, CCD 841 CoN) and a cell line deriving from a hematological tumor (U937, ATCC and CRL-3253). These different cell lines have been chosen to simulate the different human exposition routes to pesticide. Cell culture conditions have been previously reported. Compound cytotoxicity was determined using CellTiter 96® AQueous One Solution Cell Proliferation Assay (Promega Corporation, Madison, WI, USA). The very detailed protocol was described by Bartoli et al.. In brief, cells were seeded in a 96-well plate at a density of 5000 cells/well and after 24 h cells were treated with different concentrations of the compounds (0.5–1–5–10–50–100 µM). After the treatment period (24 h), the CellTiter Reagent was added to each well (20 µL/well) and the plate incubated for 4 h at 37 °C. The plate was then read at 485 nm in a multiwell plate reader (TECAN SpectraFluor Plus, Männedorf, Switzerland).
molecule,measurement,setting,value
O=Cc1ccc2c(c1)C(=O)c1ccccc1C2=O [2‐Formylanthraquinone],DNA damage as chromosomal aberrations in Allium root cells,[1],induced DNA damage as chromosomal aberrations
same,inhibition at 100 µM,"[2]; Aspergillus flavus, 100 µM, read-out: G.I. (%) (A. flavus growth inhibition)",58%
NC(=S)NNC(=O)c1ccc2c(c1)C(=O)c1ccccc1C2=O [Anthraquinone‐2‐carbonyl‐1‐thiosemicarbazide],mutagenicity in bacteria,[3],slight mutagenic activity
same,G.I. (%) (A. flavus growth inhibition),[2]; 100 µM,"58,0%"
O=C(O)c1ccc2c(c1)C(=O)c1ccccc1C2=O [Anthraquinone‐2‐carboxylic acid],effect on A. cepa root length,[4],reduction of A. cepa root length
same,A.I. (%) (aflatoxin accumulation inhibition),[5]; 50 µM,"56,0%"
same,A.I. (%) (aflatoxin accumulation inhibition),[5]; 100 µM,"80,0%"
same,DNA damage as chromosomal aberrations in Allium root cells,[1],induced DNA damage as chromosomal aberrations
CN(N=CC=Cc1ccccc1)C(N)=S [Cinnamaldehyde 2‐methyl thiosemicarbazone],A.I. (%) (aflatoxin accumulation inhibition),[5]; 100 µM,"64,0%"
same,DNA damage as chromosomal aberrations in Allium root cells,[1],induced DNA damage as chromosomal aberrations
"CN(C)C(=S)NN=CC=Cc1ccccc1 [Cinnamaldehyde 4,4‐dimethyl thiosemicarbazone]",effect on A. cepa root length,[4],reduction of A. cepa root length
same,A.I. (%) (aflatoxin accumulation inhibition),[5]; 50 µM,100%
same,A.I. (%) (aflatoxin accumulation inhibition),[5]; 100 µM,100%
same,mutagenicity in bacteria,[3],slight mutagenic activity
CCCCC(=NNC(N)=S)c1ccccc1 [Valerophenone thiosemicarbazone],A.I. (%) (aflatoxin accumulation inhibition),[5]; 100 µM,"55,0%"
same,DNA damage as chromosomal aberrations in Allium root cells,[1],induced DNA damage as chromosomal aberrations
same,G.I. (%) (A. flavus growth inhibition),[2]; 100 µM,"54,0%"
"CN(C)C(=S)NN=Cc1ccccc1 [benzaldehyde 4,4'‐dimethyl thiosemicarbazone]",A.I. (%) (aflatoxin accumulation inhibition),[5]; 50 µM,"76,0%"
same,A.I. (%) (aflatoxin accumulation inhibition),[5]; 100 µM,"90,0%"
same,mitotic index / interference with cell division,[1]; respect to the control,lower mitotic index
same,mutagenicity in bacteria,[3],without showing any mutagenic effect
Bis(2-acetylfuranthiosemicarbazonato) copper(II) [2-acfurTS-Cu],A.I. (%) (aflatoxin accumulation inhibition),[5]; 100 µM,"65,7%"
same,viability,[6]; 0.5 µM,92.8 ± 5.53%
same,viability,[6]; 1 µM,99.4 ± 4.63%
same,viability,[6]; 5 µM,98.9 ± 12.1%
same,viability,[6]; 10 µM,100 ± 5.93%
same,viability,[6]; 50 µM,36.9 ± 6.49%
same,viability,[6]; 100 µM,35.6 ± 1.89%
same,GI50,[6],39 µM
same,G.I. (%) (A. flavus growth inhibition),[2]; 100 µM,"63,4%"
same,impact on fungal growth,"[2]; 10 to 100 µM, complexes compared with their ligand",higher fungistatic activity
Bis(2-acetylfuranthiosemicarbazonato) zinc(II) [2-acfurTS-Zn],viability,[6]; 0.5 µM,100 ± 7.72%
same,viability,[6]; 1 µM,100 ± 7.88%
same,viability,[6]; 5 µM,100 ± 7.7%
same,viability,[6]; 10 µM,100 ± 12.7%
same,viability,[6]; 50 µM,16.5 ± 0.62%
same,viability,[6]; 100 µM,15.2 ± 0.73%
same,GI50,[6],30.5 µM
same,impact on fungal growth compared with the ligand,[2]; 100 µM,slightly less effective
Bis(2-acetylthiophenethiosemicarbazonato) copper(II) [2-actpTS-Cu],A.I. (%) (aflatoxin accumulation inhibition),[5]; 50 µM,"56,5%"
same,A.I. (%) (aflatoxin accumulation inhibition),[5]; 100 µM,"88,6%"
same,viability,[6]; 0.5 µM,90.7 ± 4.69%
same,viability,[6]; 1 µM,87.1 ± 3.53%
same,viability,[6]; 5 µM,72.1 ± 3.35%
same,viability,[6]; 10 µM,16.2 ± 0.84%
same,viability,[6]; 50 µM,14.6 ± 0.85%
same,viability,[6]; 100 µM,15 ± 0.2%
same,GI50,[6],6.2 µM
Bis(2-acetylthiophenethiosemicarbazonato) zinc(II) [2-actpTS-Zn],A.I. (%) (aflatoxin accumulation inhibition),[5]; 50 µM,"60,4%"
same,A.I. (%) (aflatoxin accumulation inhibition),[5]; 100 µM,"85,4%"
same,viability,[6]; 0.5 µM,91.6 ± 7.33%
same,viability,[6]; 1 µM,94.3 ± 2.25%
same,viability,[6]; 5 µM,81.9 ± 5.34%
same,viability,[6]; 10 µM,60.1 ± 1.57%
same,viability,[6]; 50 µM,15.5 ± 0.56%
same,viability,[6]; 100 µM,16 ± 1.39%
same,GI50,[6],15.4 µM
Cu(II)undecanal bisthiosemicarbazonate,A.I. (%) (aflatoxin accumulation inhibition),[5]; 50 µM,"84,8%"
same,A.I. (%) (aflatoxin accumulation inhibition),[5]; 100 µM,"96,0%"
same,G.I. (%) (A. flavus growth inhibition),[2]; 50 µM,"60,4%"
same,G.I. (%) (A. flavus growth inhibition),[2]; 100 µM,"94,0%"
Mn(II) 2‐acetylthiophene bisthiosemicarbazonate,A.I. (%) (aflatoxin accumulation inhibition),[5]; 50 µM,"61,0%"
same,A.I. (%) (aflatoxin accumulation inhibition),[5]; 100 µM,"92,0%"
same,G.I. (%) (A. flavus growth inhibition),[2]; 100 µM,"53,0%"
Ni(II) Cinnamaldehyde bisthiosemicarbazonate,A.I. (%) (aflatoxin accumulation inhibition),[5]; 50 µM,"95,0%"
same,A.I. (%) (aflatoxin accumulation inhibition),[5]; 100 µM,100%
same,G.I. (%) (A. flavus growth inhibition),[2]; 50 µM,"87,9%"
same,G.I. (%) (A. flavus growth inhibition),[2]; 100 µM,100%
Ni(II) Cuminaldehyde bisthiosemicarbazonate,A.I. (%) (aflatoxin accumulation inhibition),[5]; 50 µM,"91,5%"
same,A.I. (%) (aflatoxin accumulation inhibition),[5]; 100 µM,"96,0%"
same,G.I. (%) (A. flavus growth inhibition),[2]; 50 µM,"84,0%"
same,G.I. (%) (A. flavus growth inhibition),[2]; 100 µM,"90,0%"
Ni(II) citronellal bisthiosemicarbazonate,A.I. (%) (aflatoxin accumulation inhibition),[5]; 100 µM,"82,1%"
same,G.I. (%) (A. flavus growth inhibition),[2]; 100 µM,"58,9%"
Plumbagin thiosemicarbazone,A.I. (%) (aflatoxin accumulation inhibition),[5]; 100 µM,"83,0%"
same,G.I. (%) (A. flavus growth inhibition),[2]; 100 µM,"61,9%"
Zn(II) Cinnamaldehyde bisthiosemicarbazonate,A.I. (%) (aflatoxin accumulation inhibition),[5]; 50 µM,"99,0%"
same,A.I. (%) (aflatoxin accumulation inhibition),[5]; 100 µM,100%
same,G.I. (%) (A. flavus growth inhibition),[2]; 50 µM,"56,0%"
same,G.I. (%) (A. flavus growth inhibition),[2]; 100 µM,"76,0%"
Zn(II) Cuminaldehyde bisthiosemicarbazonate,A.I. (%) (aflatoxin accumulation inhibition),[5]; 50 µM,"97,1%"
same,A.I. (%) (aflatoxin accumulation inhibition),[5]; 100 µM,100%
same,G.I. (%) (A. flavus growth inhibition),[2]; 50 µM,"56,0%"
same,G.I. (%) (A. flavus growth inhibition),[2]; 100 µM,"60,3%"
